This experiment deals with Onchocerca gutturosa Adult Male Worms. Nature of the experiment: Onchocerciasis in vitro screening model, worm motility score. The experiment is classed as cell-based. Conditions: read-out: O. gutturosa activity level (IC50 or MED).
Setting [1] is: in vitro, Onchocerca gutturosa adult male worms, class A/B/C.
Setting [2] is: Onchocerca gutturosa, Table 1 O. gutturosa, levels A/B/C, motility or MTT readout not specified.

Like-named read-outs stand apart in the source and are kept apart here. Where only a bound is given, the exact number is not on record here.

For orientation: IC50 means the concentration that gives 50% inhibition. Turning to `CC(C)Oc1cnc(-c2nsc(Nc3ncccc3C(=O)N3CCCC3)n2)cc1C(F)(F)F` [Compound 251, (2-(3-(5-isopropoxy-4-(trifluoromethyl)pyridin-2-yl)-1,2,4-thiadiazol-5-ylamino)pyridin-3-yl) (pyrrolidin-1-yl)methanone], the IC50 under setting [1] lay in the range of 500 to 5000 nM.

As for `CC(=O)N(C)c1nccnc1Nc1nc(-c2cc3ccn(C(C)C)c3cn2)ns1` [Compound 302, N-(3-(3-(1-isopropyl-1H-pyrrolo[2,3-c]pyridin-5-yl)-1,2,4-thiadiazol-5-ylamino)pyrazin-2-yl)-N-methylacetamide], the IC50 under setting [1] was under 200 nM.

For `CC(C)Oc1cnc(-c2nsc(Nc3ncccc3N(C)C)n2)cc1C(F)(F)F` [Compound 156, N2-(3-(5-isopropoxy-4-(trifluoromethyl)pyridin-2-yl)-1,2,4-thiadiazol-5-yl)-N3,N3-dimethyl-pyridine-2,3-diamine], the IC50 under setting [2] was under 200 nM.

For `COc1ccc(Nc2nc(-c3ccccn3)ns2)nc1` [Cmpd 2, N-(5-methoxy-pyridin-2-yl)-3-(pyridin-2-yl)-1,2,4-thiadiazol-5-amine], the IC50 under setting [2] was 500 to 5000 nM.

As for `CC(C)Oc1ccc(-c2n[nH]c(Nc3ncccc3N(C)C)n2)nc1` [Compound 140, N2-(3-(5-isoprop-oxypyridin-2-yl)-1H-1,2,4-triazol-5-yl)-N3,N3-dimethyl-pyridine-2,3-diamine], the IC50 under setting [2] was in the range of 500 to 5000 nM.

As to `CC(=O)N(c1cccnc1Nc1nc(-c2ccc(OC(C)C)cn2)ns1)C(C)C` [Compound 205, N-(2-(3-(5-isopropoxy-pyridin-2-yl)-1,2,4-thiadiazol-5-ylamino)pyridin-3-yl)-N-isopropy-lacetamide], under setting [1], the IC50 was in the range of 500 to 5000 nM.

As to `CN1Cc2ccnc(-c3nsc(Nc4ncccc4N(C)C)n3)c2C1` [Compound 163, N3,N3-dimethyl-N2-(3-(2-methyl-2,3-dihydro-1H-pyrrolo[3,4-c]pyridin-4-yl)-1,2,4-thia-diazol-5-yl)pyridine-2,3-diamine], the IC50 under setting [2] was under 200 nM.

`CC(C)Oc1ccc(-c2nsc(Nc3ncccc3S(=O)(=O)N(C)C)n2)nc1` [Compound 321, 2-(3-(5-isoprop-oxypyridin-2-yl)-1,2,4-thiadiazol-5-ylamino)-N,N-dimethyl-pyridine-3-sulfonamide]: the IC50 under setting [1] was in the range of 500 to 5000 nM.

Turning to `Cc1cccnc1Nc1nc(-c2ccc(OC3CCN(C4CCCC4)CC3)cn2)ns1` [Compound 72, 3-(5-(1-cyclo-pentylpiperidin-4-yloxy)pyridin-2-yl)-N-(3-methylpyridin-2-yl)-1,2,4-thiadiazol-5-amine], under setting [2], the IC50 was 200 to 500 nM.

Regarding `COc1cnc(Nc2nc(-c3cc(C(N)=O)c(OC(C)C)cn3)ns2)c(C(F)(F)F)c1` [Compound 253, 5-isopropoxy-2-(5-(5-methoxy-3-(trifluoro-methyl)pyridin-2-ylamino)-1,2,4-thiadiazol-3-yl)isonico-tinamide], the IC50 under setting [1] was 500 to 5000 nM.

For the molecule `CC(C)Oc1ccc(-c2nsc(Nc3ncc(C(C)C)cc3C(F)(F)F)n2)nc1` [Compound 165, 3-(5-isopropoxy-pyridin-2-yl)-N-(5-isopropyl-3-(trifluoromethyl)pyridin-2-yl)-1,2,4-thiadiazol-5-amine], under setting [2], the IC50 is under 200 nM.

On to `CC(C)c1cccnc1Nc1nc(-c2ccc(OC(F)F)cn2)ns1` [Compound 127, 3-(5-(difluoro-methoxy)pyridin-2-yl)-N-(3-isopropyl-pyridin-2-yl)-1,2,4-thiadiazol-5-amine], for which the IC50 under setting [2] was under 200 nM.

As for `CC(=O)N(C)c1cccnc1Nc1nc(-c2cc3c(cn2)CN(C(C)C)C3)ns1` [Compound 310, N-(2-(3-(2-isopropyl-2,3-dihydro-1H-pyrrolo[3,4-c]pyridin-6-yl)-1,2,4-thiadiazol-5-ylamino)pyridin-3-yl)-N-methylacetamide], the IC50 under setting [1] fell in the range of 500 to 5000 nM.

As to `CC(=O)N(C)c1cc(C(F)(F)F)cnc1Nc1nc(-c2ccc(OC(C)C)nn2)ns1` [Compound 314, N-(2-(3-(6-isopropoxy-pyridazin-3-yl)-1,2,4-thiadiazol-5-ylamino)-5-(trifluoromethyl)pyridin-3-yl)-N-methylacetamide], the IC50 under setting [1] was in the range of 500 to 5000 nM.

Turning to `CN(C)c1cccnc1Nc1nc(-c2ccc(OC3CC(F)(F)C3)cn2)ns1` [Compound 136, N2-(3-(5-(3,3-difluorocyclo-butoxy)pyridin-2-yl)-1,2,4-thiadiazol-5-yl)-N3,N3-dimethyl-pyridine-2,3-diamine], under setting [2], the IC50 was 500 to 5000 nM.

As for `CC(=O)N(C)c1cnc(Nc2n[nH]c(-c3cc4c(cn3)N(C(C)C)CC4)n2)c(C(F)(F)F)c1` [Compound 294, N-(6-(5-(1-isopropyl-2,3-dihydro-1H-pyrrolo[2,3-c]pyridin-5-yl)-1H-1,2,4-triazol-3-ylamino)-5-(trifluoromethyl)pyridin-3-yl)-N-methylacetamide], under setting [1], the IC50 lay in the range of 500 to 5000 nM.

For `c1ccc(-c2ccnc(Nc3nnc(-c4ccccn4)s3)c2)cc1` [Compound 240, N-(4-pheny-lpyridin-2-yl)-5-(pyridin-2-yl)-1,3,4-thiadiazol-2-amine], the IC50 under setting [1] is 500 to 5000 nM.

As for `COc1cccnc1Nc1nc(-c2ccc(OC(C)C)cn2)ns1` [Compound 81, 3-(5-isopropoxy-pyridin-2-yl)-N-(3-methoxy-pyridin-2-yl)-1,2,4-thiadiazol-5-amine], under setting [2], the IC50 is under 200 nM.

Consider `Cc1cccnc1Nc1nc(-c2ccc(OC3CC4(C3)CN(C3CC3)C4)cn2)ns1` [Compound 82, 3-(5-(2-cyclo-propyl-2-azaspiro[3.3]heptan-6-yloxy)pyridin-2-yl)-N-(3-methylpyridin-2-yl)-1,2,4-thiadiazol-5-amine], for which the IC50 under setting [2] was in the range of 200 to 500 nM.

`Cc1cccnc1Nc1nc(-c2ccc(OC3CCN(C(=O)C(C)C)CC3)cn2)ns1` [Compound 265, 2-methyl-1-(4-(6-(5-(3-methylpyridin-2-ylamino)-1,2,4-thiadiazol-3-yl)pyridin-3-yloxy)piperidin-1-yl)propan-1-one]: the IC50 under setting [1] fell in the range of 500 to 5000 nM.

Regarding `CC(=O)Nc1cccnc1Nc1nc(-c2ccc(OC(C)C)cn2)ns1` [Compound 161, N-(2-(3-(5-isopropoxy-pyridin-2-yl)-1,2,4-thiadiazol-5-ylamino)pyridin-3-yl)acetamide], the IC50 under setting [2] is 500 to 5000 nM.

As to `CC(C)Oc1cnc(-c2nsc(Nc3ncccc3C(C)C)n2)cc1C#N` [Compound 201, 5-isopropoxy-2-(5-(3-isopropyl-pyridin-2-ylamino)-1,2,4-thiadiazol-3-yl)isonicotino-nitrile], the IC50 under setting [1] was in the range of 500 to 5000 nM.

In the case of `Cc1cccnc1Nc1nc(-c2cc(OC3CC3)c(C(F)(F)F)cn2)ns1` [Compound 151, 3-(4-cyclo-propoxy-5-(trifluoromethyl)pyridin-2-yl)-N-(3-methylpyridin-2-yl)-1,2,4-thiadiazol-5-amine], the IC50 under setting [2] is under 200 nM.

Regarding `Cc1cccnc1Nc1nc(-c2ncc(OC3CC3)cc2C(F)(F)F)ns1` [Compound 93, 3-(5-cyclo-propoxy-3-(trifluoromethyl)pyridin-2-yl)-N-(3-methyl-pyridin-2-yl)-1,2,4-thiadiazol-5-amine], the IC50 under setting [2] was 500 to 5000 nM.

Take `CC(=O)N(C)c1cccnc1Nc1nc(-c2ccc(OC(C)C)cn2)ns1` [Compound 157, N-(2-(3-(5-isopropoxy-pyridin-2-yl)-1,2,4-thiadiazol-5-ylamino)pyridin-3-yl)-N-methyl-acetamide]: the IC50 under setting [2] lay in the range of 500 to 5000 nM.

Values taken from patent US11505548B2, “Heterocyclic compounds and their use for treatment of helminthic infections and diseases” (Celgene Corporation, priority 2019, dated 2022).
